Data taken from ChEMBL document CHEMBL1201862, “PubChem BioAssay data set” (2004).
Activity calls are given as the source filed them.

How the values were obtained:
[1] = molecular target: Photoreceptor-specific nuclear receptor (Homo sapiens, UniProt Q9Y5X4); format: functional, cell-based;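 further: CHO-S cells with Gal4-NCOR and VP16-NR2E3 two-hybrid luciferase reporter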
[2] = bead-based luminescence quenchers, dual-tagged ARNT – biochemical, AlphaScreen, cherry-pick, artefact control for ARNT-TACC3 interaction inhibitor project, dose response (AID 651705); format: functional;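 further: AlphaScreen bead proximity signal that flags compounds interfering with the detection technology; potency reflects signal decrease which marks the compound as an assay artifact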
Interleukin-8 [3] = molecular target: T1, Interleukin-8 (Homo sapiens, UniProt P10145); test: Dose Response confirmation of uHTS small molecule hits for cystic fibrosis induced NFkb Inhibitors in a TNFa-induced IL8 counterscreen.; format: functional; conditions: read-out: IC50_Mean
T1 sequence (P10145 whole entry): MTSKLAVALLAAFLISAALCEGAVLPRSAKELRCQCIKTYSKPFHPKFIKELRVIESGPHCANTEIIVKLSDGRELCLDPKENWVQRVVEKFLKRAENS

Interleukin-8 [4] = molecular target: T1, Interleukin-8; test: Dose Response confirmation of uHTS small molecule hits for cystic fibrosis induced NFkb Inhibitors in a PAF-induced IL8 counterscreen.; format: functional; conditions: read-out: IC50_Mean
[5] = molecular target: T2, Probable nicotinate-nucleotide adenylyltransferase (Staphylococcus aureus (strain N315), UniProt P65502); format: functional, Staphylococcus aureus subsp. aureus N315;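 on IC50 Mean: confirmatory dose-response retesting of NadD inhibitor hits first found in an ultra-high-throughput screen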
T2 sequence (P65502 whole entry): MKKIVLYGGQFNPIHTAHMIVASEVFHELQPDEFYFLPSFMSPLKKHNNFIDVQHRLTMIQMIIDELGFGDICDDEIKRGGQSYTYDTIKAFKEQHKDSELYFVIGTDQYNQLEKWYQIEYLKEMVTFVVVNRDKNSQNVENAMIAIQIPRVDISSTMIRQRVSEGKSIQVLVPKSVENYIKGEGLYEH

[6] = molecular target: T2, Probable nicotinate-nucleotide adenylyltransferase; format: functional, Staphylococcus aureus subsp. aureus N315; conditions: read-out: IC50_Mean
[7] = molecular target: Potassium voltage-gated channel subfamily KQT member 2 (Rattus norvegicus, UniProt O88943); test: blockers of KCNQ2 channel current – cell-based, automated electrophysiology, set II, rat KCNQ2, dose response (AID 588637); format: functional
[8] = molecular target: Adenosylmethionine-8-amino-7-oxononanoate aminotransferase (Mycobacterium tuberculosis, UniProt P9WQ81); test: Mycobacterium tuberculosis BioA enzyme inhibitor Measured in Biochemical System Using Plate Reader - 2163-02_Inhibitor_Dose_CherryPick_Activity.; format: functional, Mycobacterium tuberculosis UT205
Adenosylmethionine-8-amino-7-oxononanoate aminotransferase, sequence (P9WQ81 whole entry, the tested form may be a part): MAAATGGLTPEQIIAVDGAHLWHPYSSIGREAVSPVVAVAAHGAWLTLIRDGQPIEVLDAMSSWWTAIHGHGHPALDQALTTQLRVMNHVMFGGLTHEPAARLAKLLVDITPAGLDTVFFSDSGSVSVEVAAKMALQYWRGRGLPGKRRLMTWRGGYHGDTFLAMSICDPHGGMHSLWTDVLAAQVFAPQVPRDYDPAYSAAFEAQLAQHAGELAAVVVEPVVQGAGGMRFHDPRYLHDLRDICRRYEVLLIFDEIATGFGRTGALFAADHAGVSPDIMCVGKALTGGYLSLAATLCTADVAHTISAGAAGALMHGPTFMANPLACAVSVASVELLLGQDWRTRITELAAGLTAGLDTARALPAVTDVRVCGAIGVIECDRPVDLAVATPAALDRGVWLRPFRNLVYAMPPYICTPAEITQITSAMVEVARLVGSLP

CHO = CHO cell viability loss, potency – luminescence, cytotoxicity control for TLR9-MyD88 binding inhibitor project, dose response (AID 588339); format: functional, cell-based, hamster; conditions: Cricetulus griseus;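 further: CHO cells stably coexpressing TLR9 and MyD88 fusions from primary screen; compound exposure lasted 48 hours before viability readout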
[9] = molecular target: Mitochondrial peptide methionine sulfoxide reductase (Bos taurus, UniProt P54149); test: Absorbance-based biochemical high throughput dose response assay for activators of Methionine sulfoxide reductase A (MsrA).; format: functional
Hexokinase = Hexokinase (Trypanosoma brucei, UniProt Q38C41); test: Confirmation assay for inhibitors of Trypanosoma brucei hexokinase 1-Analogue-first series. [Related pubchem assays (depositor defined):AID1430, AID1632, AID2516, AID2560, AID2579, AID2600, AID449725, AID492951]; format: functional
Hexokinase, sequence (Q38C41 whole entry): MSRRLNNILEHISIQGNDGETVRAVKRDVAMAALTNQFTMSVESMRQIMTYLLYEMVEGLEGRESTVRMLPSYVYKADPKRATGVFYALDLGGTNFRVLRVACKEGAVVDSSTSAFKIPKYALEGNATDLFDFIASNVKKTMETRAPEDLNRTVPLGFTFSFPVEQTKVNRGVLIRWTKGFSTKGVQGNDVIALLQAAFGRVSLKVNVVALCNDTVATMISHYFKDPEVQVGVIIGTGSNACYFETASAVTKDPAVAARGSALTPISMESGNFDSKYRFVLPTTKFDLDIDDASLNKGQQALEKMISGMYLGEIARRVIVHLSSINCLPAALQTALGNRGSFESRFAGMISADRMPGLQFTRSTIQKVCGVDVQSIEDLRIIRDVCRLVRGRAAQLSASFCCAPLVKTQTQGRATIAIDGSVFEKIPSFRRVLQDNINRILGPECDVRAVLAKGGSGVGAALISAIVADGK

Beta Lactamase = Beta Lactamase (Pseudomonas aeruginosa, UniProt Q932Y6); test: BLA reporter interference, concentration series – BLA reporter cells, FRET fluorescence, artefact control for TLR9-MyD88 binding inhibitor project, dose response (AID 588341); format: cell-based;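 further: cell based assay in CHO-K1 cells stably expressing beta-lactamase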
[10] = molecular target: Glucose-6-phosphate 1-dehydrogenase (Homo sapiens, UniProt P11413); test: inhibition of Homo sapiens G6PD, dose series – biochemical, fluorescence, selectivity assay for P. falciparum G6PD inhibitor project, dose response (AID 504792); format: functional
[11] = (§1) Counterscreen for antagonists of the orexin 1 receptor (OX1R; HCRTR1): Fluorescence-based cell-based high throughput dose response assay to identify antagonists of the parental CHO cell line. [Related pubchem assays (depositor defined):AID434989, AID435008, AID463079, AID485270, AID492963, AID492964, AID492965, AID493232, AID504699, AID504701]; format: functional
[12] = molecular target: T3, Orexin/Hypocretin receptor type 1 (Homo sapiens, UniProt O43613); test: (§2) Fluorescence-based cell-based high throughput dose response assay for antagonists of the orexin 1 receptor (OX1R; HCRTR1). [Related pubchem assays (depositor defined):AID434989, AID435008, AID463079, AID485270, AID492963, AID492964, AID492965, AID493232, AID504717, AID504718]; format: functional
T3 sequence (O43613 whole entry): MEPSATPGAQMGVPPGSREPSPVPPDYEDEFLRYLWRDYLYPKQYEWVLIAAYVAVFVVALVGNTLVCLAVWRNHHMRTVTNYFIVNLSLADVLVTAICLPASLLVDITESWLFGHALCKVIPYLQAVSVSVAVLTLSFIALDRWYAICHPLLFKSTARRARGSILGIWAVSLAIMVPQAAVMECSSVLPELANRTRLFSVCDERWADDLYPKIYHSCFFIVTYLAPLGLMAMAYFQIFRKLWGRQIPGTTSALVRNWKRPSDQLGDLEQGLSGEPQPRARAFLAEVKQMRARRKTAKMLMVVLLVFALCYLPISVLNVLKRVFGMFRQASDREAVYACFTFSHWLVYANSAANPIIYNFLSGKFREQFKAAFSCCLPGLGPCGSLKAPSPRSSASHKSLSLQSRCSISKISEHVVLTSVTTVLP

CHO-K1 = test: as §1, with “Homogeneous time resolved fluorescence (HTRF)-based” for “Fluorescence-based”, “cell-based” for “cell-based high throughput”, “CHO-K1” for “CHO”; format: functional; conditions: Cricetulus griseus;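 further: potency for inhibition of ATP-stimulated IP1 production as antagonists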
[13] = molecular target: T3, Orexin/Hypocretin receptor type 1; test: as §2, with “Homogeneous Time Resolved Fluorescence (HTRF)-based” for “Fluorescence-based”; format: functional
Orexin receptor type 2 [14] = molecular target: T4, Orexin receptor type 2 (Homo sapiens, UniProt O43614); test: Counterscreen assay for antagonists of the orexin 1 receptor (OX1R; HCRTR1): Fluorescence-based cell-based dose response assay for antagonists of the orexin 2 receptor (OX2R; HCRTR2), run by assay provider.; format: functional
T4 sequence (O43614 whole entry): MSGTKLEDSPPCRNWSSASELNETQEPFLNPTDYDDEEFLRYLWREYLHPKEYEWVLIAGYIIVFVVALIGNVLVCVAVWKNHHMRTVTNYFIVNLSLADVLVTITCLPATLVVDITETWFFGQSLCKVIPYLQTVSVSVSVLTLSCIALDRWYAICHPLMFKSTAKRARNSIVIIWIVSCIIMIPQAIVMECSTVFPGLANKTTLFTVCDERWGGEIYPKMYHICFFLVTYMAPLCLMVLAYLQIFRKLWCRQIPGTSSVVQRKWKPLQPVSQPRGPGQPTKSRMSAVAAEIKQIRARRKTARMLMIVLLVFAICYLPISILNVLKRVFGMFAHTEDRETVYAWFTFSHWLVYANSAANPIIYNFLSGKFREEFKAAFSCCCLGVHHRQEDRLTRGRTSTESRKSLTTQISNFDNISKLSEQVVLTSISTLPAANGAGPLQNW

Orexin receptor type 2 [15] = molecular target: T4, Orexin receptor type 2; test: Counterscreen assay for antagonists of the orexin 1 receptor (OX1R; HCRTR1): Homogeneous Time Resolved Fluorescence (HTRF)-based cell-based dose response assay for antagonists of the orexin 2 receptor (OX2R; HCRTR2), run by assay provider.; format: functional
[16] = reduction of Shn3 3'UTR-driven luciferase in osteoblasts – cell-based, Clone20 osteoblasts, firefly luciferase, cherry-picked, dose response (AID 624132); format: functional;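 further: firefly luciferase luminescence from reporter carrying the Shn3 3'UTR in osteoblasts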
Protein Wnt-3a = Protein Wnt-3a (Mus musculus, UniProt P27467); test: antagonism of Wnt3a pathway luciferase reporter – Wnt-LIGHT cells, luminescence, selectivity assay for Gli-SUFU antagonist project, dose response (AID 651570); format: functional; conditions: read-out: IC50_Mean;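 further: Wnt-LIGHT reporter cells stimulated with conditioned medium from Wnt3a-producing cells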
Protein Wnt-3a, sequence (P27467 whole entry): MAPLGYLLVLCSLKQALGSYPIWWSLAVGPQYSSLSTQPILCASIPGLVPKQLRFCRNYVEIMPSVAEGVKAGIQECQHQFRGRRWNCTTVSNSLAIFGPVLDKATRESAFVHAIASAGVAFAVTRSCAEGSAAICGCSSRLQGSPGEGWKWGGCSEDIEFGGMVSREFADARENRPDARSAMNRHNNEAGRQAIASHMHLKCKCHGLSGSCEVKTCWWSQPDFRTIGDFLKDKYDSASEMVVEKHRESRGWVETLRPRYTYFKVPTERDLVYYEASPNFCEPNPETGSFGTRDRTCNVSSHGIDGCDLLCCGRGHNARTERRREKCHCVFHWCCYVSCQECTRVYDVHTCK

[17] = non-specific 3'UTR reporter inhibition in Clone20-Shn3RL – cell-based, Renilla luciferase, cherry-picked, counter-screen for Shn3 inhibitor project, dose response (AID 624133); format: functional
[18] = loss of viability in HepG2 cells – cell-based, CellTiter-Glo, cherry-picked, cytotoxicity control for Shn3 inhibitor project, dose response (AID 624134); format: functional
Melanocortin receptor 4 = Melanocortin receptor 4 (Homo sapiens, UniProt P32245); format: functional, cell-based;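 further: Cell-based assay with luminescence read-out, confirmatory dose-response testing for agonist activity of biased ligands at MC4R; human U2OS cells with tagged receptor and beta-arrestin; potency of agonists that increase receptor coupling to beta-arrestin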
[19] = molecular target: Serine/threonine-protein kinase pim-1 (Homo sapiens, UniProt P11309); format: functional
Serine/threonine-protein kinase pim-1, sequence (P11309 whole entry): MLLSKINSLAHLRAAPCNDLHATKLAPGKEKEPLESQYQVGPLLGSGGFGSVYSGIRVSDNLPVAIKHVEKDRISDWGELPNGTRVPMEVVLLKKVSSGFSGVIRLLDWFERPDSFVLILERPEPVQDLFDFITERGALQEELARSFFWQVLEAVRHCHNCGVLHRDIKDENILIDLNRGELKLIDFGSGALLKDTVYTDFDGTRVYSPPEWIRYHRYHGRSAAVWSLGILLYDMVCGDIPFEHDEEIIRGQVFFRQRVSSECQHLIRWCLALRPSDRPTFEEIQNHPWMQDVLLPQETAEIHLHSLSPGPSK

[20] = molecular target: Dual specificity protein kinase CLK4 (Homo sapiens, UniProt Q9HAZ1); format: functional
Dual specificity protein kinase CLK4, sequence (Q9HAZ1 whole entry, canonical isoform): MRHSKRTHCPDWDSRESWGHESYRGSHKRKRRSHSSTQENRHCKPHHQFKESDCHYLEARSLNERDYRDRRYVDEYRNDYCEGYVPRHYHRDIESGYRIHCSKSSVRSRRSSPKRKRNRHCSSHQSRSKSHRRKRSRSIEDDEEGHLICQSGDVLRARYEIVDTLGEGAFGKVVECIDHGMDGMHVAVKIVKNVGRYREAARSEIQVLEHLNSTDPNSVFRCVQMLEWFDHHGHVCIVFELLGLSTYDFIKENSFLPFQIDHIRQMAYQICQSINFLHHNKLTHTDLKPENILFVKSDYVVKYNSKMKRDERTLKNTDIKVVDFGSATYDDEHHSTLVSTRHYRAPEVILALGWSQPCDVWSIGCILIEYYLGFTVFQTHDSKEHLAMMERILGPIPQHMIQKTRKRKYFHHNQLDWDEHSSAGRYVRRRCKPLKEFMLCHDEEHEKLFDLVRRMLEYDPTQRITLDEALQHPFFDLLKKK

[21] = molecular target: Casein kinase I isoform gamma-1 (Homo sapiens, UniProt Q9HCP0); format: functional;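 further: measured as the CSNK1G1 member of a kinome profiling panel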
[22] = molecular target: Rho-associated protein kinase 1 (Homo sapiens, UniProt Q13464); format: functional;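 further: measured within a broad kinome-wide panel profiling many kinases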
[23] = molecular target: Cyclin-dependent kinase 7 (Homo sapiens, UniProt P50613); format: functional;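 further: value comes from a kinome-wide kinase profiling panel in which CDK7 is one member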
Cyclin-dependent kinase 7, sequence (P50613 whole entry): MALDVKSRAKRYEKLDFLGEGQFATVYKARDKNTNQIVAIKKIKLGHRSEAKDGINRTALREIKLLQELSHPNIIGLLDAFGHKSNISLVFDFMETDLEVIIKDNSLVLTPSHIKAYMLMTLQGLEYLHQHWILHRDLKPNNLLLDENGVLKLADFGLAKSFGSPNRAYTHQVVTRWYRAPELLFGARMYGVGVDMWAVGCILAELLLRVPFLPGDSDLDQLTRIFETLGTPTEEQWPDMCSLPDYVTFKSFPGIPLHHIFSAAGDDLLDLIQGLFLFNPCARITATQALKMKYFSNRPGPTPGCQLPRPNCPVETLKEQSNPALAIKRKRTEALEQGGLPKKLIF

[24] = molecular target: Cell division cycle 7-related protein kinase (Homo sapiens, UniProt O00311); format: functional;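 further: value obtained from a kinome-wide kinase panel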
[25] = molecular target: Cyclin-dependent kinase 9 (Homo sapiens, UniProt P50750); format: functional;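 further: value from the CDK9 entry of a kinome-spanning kinase panel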
Cyclin-dependent kinase 9, sequence (P50750 whole entry): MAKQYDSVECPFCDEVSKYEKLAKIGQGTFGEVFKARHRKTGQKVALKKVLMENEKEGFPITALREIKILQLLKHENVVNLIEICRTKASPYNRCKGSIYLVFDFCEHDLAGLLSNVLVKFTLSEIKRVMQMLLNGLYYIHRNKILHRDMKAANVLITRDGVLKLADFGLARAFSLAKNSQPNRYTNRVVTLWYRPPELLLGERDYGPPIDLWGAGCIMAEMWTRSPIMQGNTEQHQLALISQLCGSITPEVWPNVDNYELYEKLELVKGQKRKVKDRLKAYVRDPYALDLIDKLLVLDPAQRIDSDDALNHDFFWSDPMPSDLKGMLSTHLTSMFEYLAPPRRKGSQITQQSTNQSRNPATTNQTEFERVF

[26] = molecular target: Ras and Rab interactor 1/Tyrosine-protein kinase ABL1 (Homo sapiens, UniProt P00519+Q13671); format: functional;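 further: biochemical TR-FRET dose-response test measuring inhibition of binding between Rin1 and Abl proteins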
Ras and Rab interactor 1/Tyrosine-protein kinase ABL1, sequence (P00519 whole entry): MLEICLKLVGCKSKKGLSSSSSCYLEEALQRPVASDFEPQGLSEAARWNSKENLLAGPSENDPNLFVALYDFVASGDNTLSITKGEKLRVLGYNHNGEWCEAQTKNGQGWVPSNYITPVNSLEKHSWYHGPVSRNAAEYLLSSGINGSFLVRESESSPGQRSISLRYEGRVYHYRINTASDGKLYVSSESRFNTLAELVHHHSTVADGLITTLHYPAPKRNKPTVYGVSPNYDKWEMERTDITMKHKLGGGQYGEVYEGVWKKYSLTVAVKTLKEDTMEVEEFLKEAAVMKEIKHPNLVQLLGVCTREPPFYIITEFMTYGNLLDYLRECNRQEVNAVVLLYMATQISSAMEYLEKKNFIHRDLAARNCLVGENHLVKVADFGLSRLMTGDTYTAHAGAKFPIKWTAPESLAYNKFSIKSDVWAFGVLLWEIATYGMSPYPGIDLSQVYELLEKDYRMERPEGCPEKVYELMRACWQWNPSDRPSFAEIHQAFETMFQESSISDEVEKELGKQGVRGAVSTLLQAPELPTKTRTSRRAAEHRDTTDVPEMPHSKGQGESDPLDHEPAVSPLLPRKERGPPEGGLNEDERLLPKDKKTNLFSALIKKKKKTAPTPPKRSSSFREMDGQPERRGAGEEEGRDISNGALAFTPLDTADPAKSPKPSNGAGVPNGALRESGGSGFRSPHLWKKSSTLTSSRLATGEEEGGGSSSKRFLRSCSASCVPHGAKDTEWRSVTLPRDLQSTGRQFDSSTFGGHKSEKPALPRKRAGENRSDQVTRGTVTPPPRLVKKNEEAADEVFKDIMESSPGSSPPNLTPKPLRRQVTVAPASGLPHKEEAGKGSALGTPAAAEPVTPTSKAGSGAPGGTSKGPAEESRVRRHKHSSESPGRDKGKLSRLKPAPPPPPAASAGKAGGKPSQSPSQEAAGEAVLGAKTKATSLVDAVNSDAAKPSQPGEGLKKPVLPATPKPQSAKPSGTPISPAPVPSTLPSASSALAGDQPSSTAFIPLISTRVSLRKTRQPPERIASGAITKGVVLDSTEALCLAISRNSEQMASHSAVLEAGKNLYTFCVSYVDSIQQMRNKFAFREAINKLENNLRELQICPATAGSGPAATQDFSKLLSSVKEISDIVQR
Ras and Rab interactor 1/Tyrosine-protein kinase ABL1, sequence (Q13671 whole entry): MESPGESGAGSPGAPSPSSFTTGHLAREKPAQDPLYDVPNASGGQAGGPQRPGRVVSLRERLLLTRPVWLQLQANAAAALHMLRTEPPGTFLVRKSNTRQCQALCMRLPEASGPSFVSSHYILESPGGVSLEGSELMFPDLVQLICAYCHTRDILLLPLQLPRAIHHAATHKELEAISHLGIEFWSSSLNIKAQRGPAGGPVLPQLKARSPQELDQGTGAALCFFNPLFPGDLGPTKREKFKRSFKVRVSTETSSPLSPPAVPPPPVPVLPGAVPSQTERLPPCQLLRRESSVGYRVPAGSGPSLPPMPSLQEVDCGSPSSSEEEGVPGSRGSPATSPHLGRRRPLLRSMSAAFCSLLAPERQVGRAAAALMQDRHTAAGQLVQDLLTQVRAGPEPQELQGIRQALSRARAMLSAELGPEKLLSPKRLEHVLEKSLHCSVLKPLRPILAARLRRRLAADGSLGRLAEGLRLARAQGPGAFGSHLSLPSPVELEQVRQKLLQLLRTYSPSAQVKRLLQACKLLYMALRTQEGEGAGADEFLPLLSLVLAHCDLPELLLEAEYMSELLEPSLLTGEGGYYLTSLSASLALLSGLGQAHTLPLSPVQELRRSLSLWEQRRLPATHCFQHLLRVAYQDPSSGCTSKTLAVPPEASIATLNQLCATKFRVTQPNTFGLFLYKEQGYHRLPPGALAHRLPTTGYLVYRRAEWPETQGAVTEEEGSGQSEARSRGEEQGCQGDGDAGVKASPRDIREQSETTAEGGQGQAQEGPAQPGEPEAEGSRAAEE

[27] = molecular target: T5, Aryl hydrocarbon receptor (Homo sapiens, UniProt P35869); conditions: Potency;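 further: confirmatory quantitative high-throughput screen measuring activation of the AhR signaling pathway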
T5 sequence (P35869 whole entry): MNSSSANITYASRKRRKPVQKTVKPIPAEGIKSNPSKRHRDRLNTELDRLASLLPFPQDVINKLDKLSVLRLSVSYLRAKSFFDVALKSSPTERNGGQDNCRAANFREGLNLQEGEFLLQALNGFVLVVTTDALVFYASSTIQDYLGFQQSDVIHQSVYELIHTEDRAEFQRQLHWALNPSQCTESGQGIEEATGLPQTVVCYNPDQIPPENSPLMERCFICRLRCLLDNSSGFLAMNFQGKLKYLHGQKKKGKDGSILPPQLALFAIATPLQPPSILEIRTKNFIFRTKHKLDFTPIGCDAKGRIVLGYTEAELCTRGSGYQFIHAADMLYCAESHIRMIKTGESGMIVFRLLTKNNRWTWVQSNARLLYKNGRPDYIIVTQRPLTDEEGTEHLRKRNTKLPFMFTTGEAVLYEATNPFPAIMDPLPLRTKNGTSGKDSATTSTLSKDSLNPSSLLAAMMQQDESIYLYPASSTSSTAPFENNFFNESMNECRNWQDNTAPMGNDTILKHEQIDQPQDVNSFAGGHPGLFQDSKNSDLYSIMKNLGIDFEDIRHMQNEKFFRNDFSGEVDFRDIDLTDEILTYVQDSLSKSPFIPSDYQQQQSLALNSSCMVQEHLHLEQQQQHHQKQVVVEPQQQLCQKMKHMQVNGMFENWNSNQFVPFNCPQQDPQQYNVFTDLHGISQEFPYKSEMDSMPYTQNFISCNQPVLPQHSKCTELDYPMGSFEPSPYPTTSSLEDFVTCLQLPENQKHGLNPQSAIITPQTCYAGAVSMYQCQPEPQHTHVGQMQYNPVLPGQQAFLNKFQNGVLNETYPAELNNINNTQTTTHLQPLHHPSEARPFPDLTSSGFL

In the case of `Cc1ccc(CN2CC(C(=O)Nc3ncc(C)s3)CC2=O)cc1` (stereo not given), the IC50 [1] was 1.26 µM (active).
For `Nn1c(SCC(=O)Nc2ccc3c(c2)OCCO3)nnc1-c1ccccn1`, the AC50 [2] was 107 µM (active).
In the case of `COC(=O)N1C(=O)[C@@](c2ccc(OC)cc2)(C(C)C)N1C(=O)OC`, the IC50 (Interleukin-8 [3]) was 3.22 µM (active) and the IC50 (Interleukin-8 [4]) was 2.4 µM (active).
For `O=C1CC(=C2c3ccccc3-c3ccccc32)C(=O)N1CCN1CCN(c2cccc(Cl)c2)CC1`, the IC50 [5] was 13.5 µM (active) and the IC50 [6] was 26.6 µM (active).
In the case of `O=C(CN1CCCc2ccccc21)NCCc1ccc(Cl)cc1`, the IC50 [7] was 8.54 µM (active).
In the case of `C=CCn1c(SCc2c(C(=O)OC)sc(N)c2C(=O)OC)nnc1-c1ccc(Br)cc1`, the AC50 [8] was 0.233 µM (active).
With `O=c1c2cc([N+](=O)[O-])ccc2sn1-c1ccccc1` the IC50 (CHO) was 12.1 µM (inactive), the EC50 [9] was > 104 µM (inactive) and the IC50 (Hexokinase) was > 25 µM (inactive). For the same compound, the IC50 (Beta Lactamase) was > 49.7 µM (inactive) and the IC50 [10] was 11.3 µM (active).
In the case of `CCc1cc(C(=O)OCC(=O)N2CCC(c3ccccc3)=N2)sc1C`, the IC50 [11] was > 49.8 µM (inactive), the IC50 [12] was 3.47 µM (active) and the IC50 (CHO-K1) was > 66.2 µM (inactive). For the same compound, the IC50 [13] was 2.45 µM (active), the IC50 (Orexin receptor type 2 [14]) was > 88.8 µM (inactive) and the IC50 (Orexin receptor type 2 [15]) was > 50 µM (inactive).
For `Cc1c(C(=O)OC(C)C(=O)N(C)Cc2ccccc2)oc2ccccc12` (stereo not given), the IC50 [11] was 43.3 µM (inactive), the IC50 [12] was 6.49 µM (active) and the IC50 (CHO-K1) was > 66.2 µM (inactive). For the same compound, the IC50 [13] was 0.717 µM (active), the IC50 (Orexin receptor type 2 [14]) was 9.6 µM (active) and the IC50 (Orexin receptor type 2 [15]) was 5.52 µM (active).
In the case of `Cc1ccc(S(=O)(=O)N2CCN(C(=O)C3CCN(c4ncnc5sc(C)c(C)c45)CC3)CC2)c(C)c1`, the AC50 [16] was 2.12 µM (active), the IC50 (Protein Wnt-3a) was 14.7 µM (active) and the AC50 [17] was 1.43 µM (active). For the same compound, the AC50 [18] was 46 µM (active).
With `COc1ccccc1-c1cc(NC(C)=O)c2ncc(-c3ccccc3)n2c1` the EC50 (Melanocortin receptor 4) was > 89.2 µM (inactive).
For `O=C1CC(c2ccc(F)cc2)Cc2[nH]c3cc(Cl)ccc3c(=O)c21` (stereo not given), the Ki [19] was 3.98 µM (active), the Ki [20] was 6.31 µM (active) and the Ki [21] was 3.98 µM (active).
In the case of `Nc1nonc1-n1cc(CO)nn1`, the Ki [22] was 39.8 µM (active) and the Ki [20] was 63.1 µM (active).
For `COCCN(CCOC)c1nc(OC)cc(-c2c[nH]c3ncccc23)n1`, the Ki [23] was > 2.51 µM (inactive), the Ki [24] was 0.1 µM (active) and the Ki [25] was > 2.51 µM (inactive).
With `CCSCCO/C(O)=C1\C(C)=NC2=C(C(=O)CCC2)C1c1coc2ccccc2c1=O` (stereo not given) the IC50 [26] was > 73.5 µM (inactive).
In the case of `Nc1ccc(/N=N/c2ccccc2)cc1`, the AC50 [27] was 50.1 µM (inconclusive).
